Laboratory results: US12448410B2, “Derivative of sarsasapogenin, pharmaceutical composition and use thereof” (Phytovent Biopharma, priority 2018, dated 2025)

Key:
Type in all cases: cell-based
[1] = test system: A549 lung cancer cells; assay: CTG cell proliferation, in vitro growth inhibition of A549 lung cancer cells; settings: Homo sapiens, 72 hours, CellTiter-Glo
Protocol: (§1) Study of CTG Cell Proliferation—Inhibition of In-Vitro Growth of Various Tumor Cells by Sarsasapogenin Derivative
(§2) Tumor cells included: human A549 cells (lung cancer cells) (ATCC, Catalog No. CCL-185), HeLa cells (cervical cancer cells) (ATCC, Catalog No. CCL-2), HepG2 cells (liver cancer cells) (ATCC, Catalog No. HB-8065), A375 cells (melanoma cells) (ATCC, Catalog No. CRL-1619), MCF-7 (breast cancer cell) (ATCC, Catalog No. HTB-22), U87MG (brain glioma cell) (ATCC, Catalog No. HTB-14), LN229 (ATCC, Catalog No. CRL-2611), A172 (ATCC, Catalog No. CRL-1620), KNS-42 (JCRB, Catalog No. IF050356), BE(2)-C (ATCC, Catalog No. CRL-2268), U118MG (ATCC, Catalog No. HTB-15), SW-1088 (ATCC, Catalog No. HTB-12), and SH-SY5Y (CLS, Catalog No. 300154).
(§3) The aforementioned tumor cells were inoculated into clear-bottom white 96-well culture plates (Corning, Catalog No. CLS3903) containing specific medium at 1.8 to 15×10^3 cells per well, and were incubated in an incubator (37° C., 5% CO2) for 24 hours.
(§4) A 10 mM stock solution was prepared by using DMSO (Sigma, Catalog No. D2650) for each compound, diluted with medium to required concentrations (final concentration of DMSO: 0.2%) and added into each well with 2 replicate wells/concentration. The cells were incubated in the incubator at 37° C. and 5% CO2 for 72 hours. Then, 100 μL of CellTiter-Glo® cell activity assay reagent (Promega, Catalog No. G7573) was added into each well and well mixed using a shaker for 10 minutes to induce cytolysis. The 96-well plates were let stand at room temperature for 10 minutes to stabilize the luminous signals. With white bottom membranes attached to the bottoms of the culture plates, the plates were read using EnSpire system. Data were processed by XLfit software to give IC50 values.

[2] = test system: LN229; assay: CTG cell proliferation, brain tumor cells LN229; settings: Homo sapiens, LN-229; LN229, 72 hours, CellTiter-Glo; read-out: Inhibition of in vitro growth of brain tumor cells (IC50)
Protocol: as §1, §2, §3, §4

[3] = test system: SW-1088; assay: CTG cell proliferation, brain tumor cells SW-1088; settings: Homo sapiens, SW1088; SW-1088, 72 hours, CellTiter-Glo; read-out: Inhibition of in vitro growth of brain tumor cells (IC50)
Protocol: as §1, §2, §3, §4

[4] = test system: A172; assay: CTG cell proliferation, brain tumor cells A172; settings: Homo sapiens, A 172; A172, 72 hours, CellTiter-Glo; read-out: Inhibition of in vitro growth of brain tumor cells (IC50)
Protocol: as §1, §2, §3, §4

[5] = test system: U87MG (brain glioma cell); assay: CTG cell proliferation, brain tumor cells U87MG; settings: Homo sapiens, U-87 MG, 72 hours, CellTiter-Glo, read-out: Inhibition of in vitro growth of brain tumor cells (IC50)
Protocol: as §1, §2, §3, §4

[6] = test system: BE(2)-C; assay: CTG cell proliferation, brain tumor cells BE(2)-C; settings: Homo sapiens, 72 hours, CellTiter-Glo, read-out: Inhibition of in vitro growth of brain tumor cells (IC50)
Protocol: as §1, §2, §3, §4

[7] = test system: SH-SY5Y; assay: CTG cell proliferation, brain tumor cells SH-SY5Y; settings: Homo sapiens, 72 hours, CellTiter-Glo, read-out: Inhibition of in vitro growth of brain tumor cells (IC50)
Protocol: as §1, §2, §3, §4

[8] = test system: KNS-42; assay: CTG cell proliferation, brain tumor cells KNS-42; settings: Homo sapiens; KNS-42, 72 hours, CellTiter-Glo; read-out: Inhibition of in vitro growth of brain tumor cells (IC50)
Protocol: as §1, §2, §3, §4

[9] = test system: U118MG; assay: CTG cell proliferation, brain tumor cells U118MG; settings: Homo sapiens, U-118-MG, 72 hours, CellTiter-Glo, read-out: Inhibition of in vitro growth of brain tumor cells (IC50)
Protocol: as §1, §2, §3, §4

| SMILES | inhibition at 1 µM [1] [%] | inhibition at 5 µM [1] [%] | inhibition at 10 µM [1] [%] | IC50 [2] [nM] | IC50 [3] [nM] | IC50 [4] [µM] | IC50 [5] [nM] | IC50 [6] [µM] | IC50 [7] [nM] | IC50 [8] [nM] | IC50 [9] [nM] |
| --- | --- | --- | --- | --- | --- | --- | --- | --- | --- | --- | --- |
| C[C@H]1CC[C@@]2(OC1)O[C@H]1C[C@H]3[C@@H]4CC[C@@H]5CC(NC(=O)C6CCN(C)CC6)CC[C@]5(C)[C@H]4CC[C@]3(C)[C@H]1[C@@H]2C (stereo partly drawn) [Example 1] | -5.25 | 31.1 | 87.6 |  |  |  |  |  |  |  |  |
| C[C@H]1CC[C@@]2(OC1)O[C@H]1C[C@H]3[C@@H]4CC[C@@H]5C[C@@H](NC(=O)CCN6CCN(C)CC6)CC[C@]5(C)[C@H]4CC[C@]3(C)[C@H]1[C@@H]2C [Example 2A] |  |  |  | 1620 | 660 | 1.66 | 1560 | 2.85 | 2780 | 1770 | 1070 |
| C[C@H]1CC[C@@]2(OC1)O[C@H]1C[C@H]3[C@@H]4CC[C@@H]5C[C@H](NC(=O)CCN6CCN(C)CC6)CC[C@]5(C)[C@H]4CC[C@]3(C)[C@H]1[C@@H]2C [Example 2B] |  |  |  | 5520 | 2750 | 3.84 | 4660 | 7.9 | > 10000 | 4780 | 5170 |
| C[C@H]1CC[C@@]2(OC1)O[C@H]1C[C@H]3[C@@H]4CC[C@@H]5CC(NC(=O)CCN6CCN(C)CC6)CC[C@]5(C)[C@H]4CC[C@]3(C)[C@H]1[C@@H]2C (stereo partly drawn) [Example 2] | 95.3 | 98.1 | 100 |  |  |  |  |  |  |  |  |
| C[C@H]1CC[C@@]2(OC1)O[C@H]1C[C@H]3[C@@H]4CC[C@@H]5CC(NC(=O)CN(C)C)CC[C@]5(C)[C@H]4CC[C@]3(C)[C@H]1[C@@H]2C (stereo partly drawn) [Example 3] | 1 | 86.2 | 99 |  |  |  |  |  |  |  |  |
| C[C@H]1CC[C@@]2(OC1)O[C@H]1C[C@H]3[C@@H]4CC[C@@H]5CC(NC(=O)CCN(C)C)CC[C@]5(C)[C@H]4CC[C@]3(C)[C@H]1[C@@H]2C (stereo partly drawn) [Example 4] | 18.2 | 99 | 100 | 2290 | 2720 | 3.04 | 2360 | 3.31 | 2800 | 1920 | 1930 |
| C[C@H]1CC[C@@]2(OC1)O[C@H]1C[C@H]3[C@@H]4CC[C@@H]5CC(NC(=O)CC(=O)N6CCN(C)CC6)CC[C@]5(C)[C@H]4CC[C@]3(C)[C@H]1[C@@H]2C (stereo partly drawn) [Example 5] | 1.37 | 48.3 | 95.9 |  |  |  |  |  |  |  |  |
| C[C@H]1CC[C@@]2(OC1)O[C@H]1C[C@H]3[C@@H]4CC[C@@H]5CC(NC(=O)CC(=O)NC6CCN(C)CC6)CC[C@]5(C)[C@H]4CC[C@]3(C)[C@H]1[C@@H]2C (stereo partly drawn) [Example 6] | -6.51 | 82.2 | 99.8 |  |  |  |  |  |  |  |  |
| C[C@H]1CC[C@@]2(OC1)O[C@H]1C[C@H]3[C@@H]4CC[C@@H]5CC(NC(=O)CC(=O)NCC6CCN(C)CC6)CC[C@]5(C)[C@H]4CC[C@]3(C)[C@H]1[C@@H]2C (stereo partly drawn) [Example 7] | -0.84 | 91.7 | 99.9 |  |  |  |  |  |  |  |  |
| C[C@H]1CC[C@@]2(OC1)O[C@H]1C[C@H]3[C@@H]4CC[C@@H]5CC(NC(=O)CC(=O)NCCCN6CCOCC6)CC[C@]5(C)[C@H]4CC[C@]3(C)[C@H]1[C@@H]2C (stereo partly drawn) [Example 8] | 36.2 | 7.71 | 93.5 |  |  |  |  |  |  |  |  |
| C[C@H]1CC[C@@]2(OC1)O[C@H]1C[C@H]3[C@@H]4CC[C@@H]5CC(NC(=O)CC(=O)N6CCC(N7CCCCC7)CC6)CC[C@]5(C)[C@H]4CC[C@]3(C)[C@H]1[C@@H]2C (stereo partly drawn) [Example 9] | 2.09 | 22.9 | 97.8 |  |  |  |  |  |  |  |  |
| C[C@H]1CC[C@@]2(OC1)O[C@H]1C[C@H]3[C@@H]4CC[C@@H]5CC(NC(=O)CC(=O)N6CCNCC6)CC[C@]5(C)[C@H]4CC[C@]3(C)[C@H]1[C@@H]2C (stereo partly drawn) [Example 10] | 5.08 | 65.8 | 99.3 |  |  |  |  |  |  |  |  |
| C[C@H]1CC[C@@]2(OC1)O[C@H]1C[C@H]3[C@@H]4CC[C@@H]5CC(NC(=O)CC(=O)N6CC7CNCC7C6)CC[C@]5(C)[C@H]4CC[C@]3(C)[C@H]1[C@@H]2C (stereo partly drawn) [Example 11] | 3.86 | 57.3 | 97.2 |  |  |  |  |  |  |  |  |
| C[C@H]1CC[C@@]2(OC1)O[C@H]1C[C@H]3[C@@H]4CC[C@@H]5CC(NC(=O)CC(=O)N6CCN(CCN7CCCC7)CC6)CC[C@]5(C)[C@H]4CC[C@]3(C)[C@H]1[C@@H]2C (stereo partly drawn) [Example 12] | 4.5 | 89.6 | 98.5 |  |  |  |  |  |  |  |  |
